Test results: ChEMBL document CHEMBL4368922 (Bioorg Med Chem Lett, 2019); call rule not given here

Key:
[1] = biological target: T1, Lysine-specific histone demethylase 1A (Homo sapiens, UniProt O60341)
Description: (§1) Inhibition of recombinant human LSD1 (172 to 852 residues) using biotin-labelled H3K4me2 (1 to 24 residues) after 1 hr by TR-FRET assay

[2] = biological target: Menin/Histone-lysine N-methyltransferase MLL (Homo sapiens, UniProt O00255)
Description: (§2) Inhibition of full length human menin/FAM-tagged MLL1 (unknown origin) protein-protein interaction after 15 mins by fluorescence polarization assay

[3] = biological target: T2, Amine oxidase [flavin-containing] A (Homo sapiens, UniProt P21397)
T2 sequence (P21397 whole entry): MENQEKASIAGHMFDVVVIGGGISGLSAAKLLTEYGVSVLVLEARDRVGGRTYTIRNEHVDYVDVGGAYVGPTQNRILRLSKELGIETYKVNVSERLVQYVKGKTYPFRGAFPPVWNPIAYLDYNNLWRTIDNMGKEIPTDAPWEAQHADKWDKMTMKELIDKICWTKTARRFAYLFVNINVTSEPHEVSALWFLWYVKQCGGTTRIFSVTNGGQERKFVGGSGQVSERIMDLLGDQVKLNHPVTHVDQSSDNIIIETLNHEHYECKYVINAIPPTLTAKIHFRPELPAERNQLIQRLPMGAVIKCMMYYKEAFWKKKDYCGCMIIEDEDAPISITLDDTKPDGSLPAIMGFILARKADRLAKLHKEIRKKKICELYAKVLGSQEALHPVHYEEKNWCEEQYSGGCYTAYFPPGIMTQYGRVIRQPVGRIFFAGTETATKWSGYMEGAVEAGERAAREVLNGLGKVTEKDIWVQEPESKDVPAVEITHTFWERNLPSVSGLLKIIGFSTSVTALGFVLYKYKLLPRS
Description: (§3) Inhibition of MAOA (unknown origin) by Promega MAO-Glo assay

[4] = biological target: T3, Amine oxidase [flavin-containing] B (Homo sapiens, UniProt P27338)
T3 sequence (P27338 whole entry): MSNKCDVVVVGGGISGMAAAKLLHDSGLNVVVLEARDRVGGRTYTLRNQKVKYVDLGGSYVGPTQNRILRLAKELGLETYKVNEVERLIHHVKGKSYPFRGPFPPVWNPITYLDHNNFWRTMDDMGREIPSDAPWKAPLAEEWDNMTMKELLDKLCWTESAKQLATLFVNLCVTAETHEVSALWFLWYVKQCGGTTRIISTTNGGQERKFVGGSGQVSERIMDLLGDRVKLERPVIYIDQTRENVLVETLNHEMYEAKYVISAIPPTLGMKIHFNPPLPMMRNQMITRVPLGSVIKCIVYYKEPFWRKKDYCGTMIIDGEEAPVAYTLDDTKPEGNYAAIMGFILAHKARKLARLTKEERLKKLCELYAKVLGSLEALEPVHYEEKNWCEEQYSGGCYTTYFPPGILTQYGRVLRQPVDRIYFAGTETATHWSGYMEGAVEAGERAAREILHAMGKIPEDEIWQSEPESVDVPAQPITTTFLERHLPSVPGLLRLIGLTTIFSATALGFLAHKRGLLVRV
Description: (§4) Inhibition of MAOB (unknown origin) by Promega MAO-Glo assay

MV4-11 [5] = experiment: cells; details: Homo sapiens, MV4-11, 168 h
Description: Antiproliferative activity against human MV4-11 cells after 168 hrs by MTS assay

MV4-11 [6] = experiment: Antiproliferative activity against human MV4-11 cells after 240 hrs by MTS assay; type: functional, cell-based; details: MV4-11, 240 h
[7] = biological target: Menin/Histone-lysine N-methyltransferase MLL (Homo sapiens, UniProt O00255+Q03164)
Description: as §2

[8] = biological target: T1, Lysine-specific histone demethylase 1A; experiment: Inhibition of LSD1 in human MV4-11 cells assessed as increase in CD86 mRNA expression at 500 nM by SYBR Green dye-bsed RT-qPCR analysis relative to control; type: cell-based
[9] = biological target: T1, Lysine-specific histone demethylase 1A; remark: listed apart in the source
Description: as §1

[10] = biological target: T2, Amine oxidase [flavin-containing] A; remark: listed apart in the source
Description: as §3

[11] = biological target: T3, Amine oxidase [flavin-containing] B; remark: listed apart in the source
Description: as §4

[12] = biological target: T1, Lysine-specific histone demethylase 1A; experiment: Inhibition of LSD1 in human MV4-11 cells assessed as increase in CD86 mRNA expression at 100 nM by SYBR Green dye-bsed RT-qPCR analysis relative to control; type: cell-based

Sequence of Menin/Histone-lysine N-methyltransferase MLL (Homo sapiens, UniProt O00255) (O00255 whole entry): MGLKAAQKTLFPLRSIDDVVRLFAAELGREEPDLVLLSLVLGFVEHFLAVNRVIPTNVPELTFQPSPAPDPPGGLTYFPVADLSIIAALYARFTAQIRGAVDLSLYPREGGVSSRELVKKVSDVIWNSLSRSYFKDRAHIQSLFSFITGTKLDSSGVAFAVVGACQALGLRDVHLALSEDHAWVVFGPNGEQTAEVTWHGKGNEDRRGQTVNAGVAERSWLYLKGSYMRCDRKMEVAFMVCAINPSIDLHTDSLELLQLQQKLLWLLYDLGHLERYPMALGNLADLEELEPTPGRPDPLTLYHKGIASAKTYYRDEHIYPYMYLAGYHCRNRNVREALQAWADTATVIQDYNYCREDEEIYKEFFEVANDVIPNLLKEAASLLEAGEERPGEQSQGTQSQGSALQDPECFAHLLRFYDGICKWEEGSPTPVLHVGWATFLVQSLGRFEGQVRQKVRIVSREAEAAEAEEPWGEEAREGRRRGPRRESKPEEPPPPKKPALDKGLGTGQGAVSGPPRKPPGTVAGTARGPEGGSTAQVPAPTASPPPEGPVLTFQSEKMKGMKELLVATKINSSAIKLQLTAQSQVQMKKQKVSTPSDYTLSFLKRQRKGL
Sequence of Menin/Histone-lysine N-methyltransferase MLL (Homo sapiens, UniProt O00255) (Q03164 1-2718 partner limits assumed): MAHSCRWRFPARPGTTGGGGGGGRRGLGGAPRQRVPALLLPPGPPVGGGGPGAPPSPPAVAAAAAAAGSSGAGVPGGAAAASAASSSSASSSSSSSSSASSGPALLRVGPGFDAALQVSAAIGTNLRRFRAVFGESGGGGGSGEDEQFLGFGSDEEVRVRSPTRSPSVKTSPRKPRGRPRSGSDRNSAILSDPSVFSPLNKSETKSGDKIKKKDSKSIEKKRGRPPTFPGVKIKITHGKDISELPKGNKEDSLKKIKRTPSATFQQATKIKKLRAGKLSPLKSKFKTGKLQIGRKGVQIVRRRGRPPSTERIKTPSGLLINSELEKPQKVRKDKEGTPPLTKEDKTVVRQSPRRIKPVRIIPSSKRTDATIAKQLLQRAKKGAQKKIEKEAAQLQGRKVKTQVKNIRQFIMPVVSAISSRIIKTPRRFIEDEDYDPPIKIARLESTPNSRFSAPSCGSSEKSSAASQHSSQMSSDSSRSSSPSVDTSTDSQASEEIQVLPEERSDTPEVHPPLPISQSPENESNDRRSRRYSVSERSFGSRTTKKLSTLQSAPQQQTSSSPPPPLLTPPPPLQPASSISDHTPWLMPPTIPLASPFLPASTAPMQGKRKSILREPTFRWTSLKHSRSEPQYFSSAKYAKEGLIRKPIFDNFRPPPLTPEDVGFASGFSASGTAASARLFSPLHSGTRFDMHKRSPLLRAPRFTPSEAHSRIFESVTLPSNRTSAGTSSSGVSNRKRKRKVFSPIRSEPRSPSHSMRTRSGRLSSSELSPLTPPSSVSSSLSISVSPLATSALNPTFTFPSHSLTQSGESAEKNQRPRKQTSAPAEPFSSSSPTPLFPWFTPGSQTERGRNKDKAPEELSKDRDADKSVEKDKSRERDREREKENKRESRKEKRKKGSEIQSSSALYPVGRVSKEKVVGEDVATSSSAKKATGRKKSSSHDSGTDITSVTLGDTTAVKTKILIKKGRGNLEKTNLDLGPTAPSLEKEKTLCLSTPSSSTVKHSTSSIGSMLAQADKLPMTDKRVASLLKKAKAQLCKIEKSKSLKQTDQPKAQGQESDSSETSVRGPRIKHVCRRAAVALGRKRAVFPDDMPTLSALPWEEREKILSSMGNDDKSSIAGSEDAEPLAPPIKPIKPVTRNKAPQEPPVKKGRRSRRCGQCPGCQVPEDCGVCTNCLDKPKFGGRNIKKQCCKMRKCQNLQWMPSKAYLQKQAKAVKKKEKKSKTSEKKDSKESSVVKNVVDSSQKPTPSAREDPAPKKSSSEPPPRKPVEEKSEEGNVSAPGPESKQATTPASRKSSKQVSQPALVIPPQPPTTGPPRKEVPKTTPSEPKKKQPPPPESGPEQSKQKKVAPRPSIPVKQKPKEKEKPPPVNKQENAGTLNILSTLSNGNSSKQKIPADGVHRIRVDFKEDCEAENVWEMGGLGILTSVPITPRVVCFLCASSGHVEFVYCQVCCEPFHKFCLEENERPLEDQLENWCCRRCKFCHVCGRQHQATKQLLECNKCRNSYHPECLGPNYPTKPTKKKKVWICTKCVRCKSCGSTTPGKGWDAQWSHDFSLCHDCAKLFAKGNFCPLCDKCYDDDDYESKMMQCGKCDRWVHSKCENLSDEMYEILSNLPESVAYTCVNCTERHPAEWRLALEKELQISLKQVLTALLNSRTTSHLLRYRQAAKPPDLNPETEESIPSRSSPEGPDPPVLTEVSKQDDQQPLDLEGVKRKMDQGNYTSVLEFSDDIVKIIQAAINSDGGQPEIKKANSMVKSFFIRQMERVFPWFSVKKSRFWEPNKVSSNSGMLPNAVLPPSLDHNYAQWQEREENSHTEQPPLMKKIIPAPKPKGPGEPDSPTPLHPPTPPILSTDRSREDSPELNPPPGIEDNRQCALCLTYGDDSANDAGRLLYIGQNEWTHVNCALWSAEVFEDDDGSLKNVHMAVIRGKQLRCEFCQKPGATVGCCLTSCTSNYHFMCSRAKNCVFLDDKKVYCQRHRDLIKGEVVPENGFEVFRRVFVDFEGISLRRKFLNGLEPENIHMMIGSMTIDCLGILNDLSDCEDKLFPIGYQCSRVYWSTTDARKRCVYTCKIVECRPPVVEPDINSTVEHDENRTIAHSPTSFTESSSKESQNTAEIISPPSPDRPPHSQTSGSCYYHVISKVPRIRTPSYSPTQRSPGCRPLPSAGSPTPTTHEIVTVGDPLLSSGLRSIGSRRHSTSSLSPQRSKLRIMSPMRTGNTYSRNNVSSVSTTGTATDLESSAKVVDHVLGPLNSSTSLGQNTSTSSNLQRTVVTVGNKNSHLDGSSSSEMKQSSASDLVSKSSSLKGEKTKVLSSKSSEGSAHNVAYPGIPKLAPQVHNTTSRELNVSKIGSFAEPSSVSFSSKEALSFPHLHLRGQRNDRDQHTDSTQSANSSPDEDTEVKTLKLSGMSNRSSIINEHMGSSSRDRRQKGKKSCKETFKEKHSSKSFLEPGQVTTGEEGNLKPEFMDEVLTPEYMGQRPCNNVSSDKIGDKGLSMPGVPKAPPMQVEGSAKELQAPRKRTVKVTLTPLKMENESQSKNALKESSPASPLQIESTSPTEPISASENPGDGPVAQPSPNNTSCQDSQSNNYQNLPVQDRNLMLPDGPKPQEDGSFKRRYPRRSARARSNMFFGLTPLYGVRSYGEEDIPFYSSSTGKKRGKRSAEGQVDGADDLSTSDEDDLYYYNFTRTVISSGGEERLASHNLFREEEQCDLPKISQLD
Sequence of Menin/Histone-lysine N-methyltransferase MLL (Homo sapiens, UniProt O00255) (Q03164 2719-3969 partner limits assumed): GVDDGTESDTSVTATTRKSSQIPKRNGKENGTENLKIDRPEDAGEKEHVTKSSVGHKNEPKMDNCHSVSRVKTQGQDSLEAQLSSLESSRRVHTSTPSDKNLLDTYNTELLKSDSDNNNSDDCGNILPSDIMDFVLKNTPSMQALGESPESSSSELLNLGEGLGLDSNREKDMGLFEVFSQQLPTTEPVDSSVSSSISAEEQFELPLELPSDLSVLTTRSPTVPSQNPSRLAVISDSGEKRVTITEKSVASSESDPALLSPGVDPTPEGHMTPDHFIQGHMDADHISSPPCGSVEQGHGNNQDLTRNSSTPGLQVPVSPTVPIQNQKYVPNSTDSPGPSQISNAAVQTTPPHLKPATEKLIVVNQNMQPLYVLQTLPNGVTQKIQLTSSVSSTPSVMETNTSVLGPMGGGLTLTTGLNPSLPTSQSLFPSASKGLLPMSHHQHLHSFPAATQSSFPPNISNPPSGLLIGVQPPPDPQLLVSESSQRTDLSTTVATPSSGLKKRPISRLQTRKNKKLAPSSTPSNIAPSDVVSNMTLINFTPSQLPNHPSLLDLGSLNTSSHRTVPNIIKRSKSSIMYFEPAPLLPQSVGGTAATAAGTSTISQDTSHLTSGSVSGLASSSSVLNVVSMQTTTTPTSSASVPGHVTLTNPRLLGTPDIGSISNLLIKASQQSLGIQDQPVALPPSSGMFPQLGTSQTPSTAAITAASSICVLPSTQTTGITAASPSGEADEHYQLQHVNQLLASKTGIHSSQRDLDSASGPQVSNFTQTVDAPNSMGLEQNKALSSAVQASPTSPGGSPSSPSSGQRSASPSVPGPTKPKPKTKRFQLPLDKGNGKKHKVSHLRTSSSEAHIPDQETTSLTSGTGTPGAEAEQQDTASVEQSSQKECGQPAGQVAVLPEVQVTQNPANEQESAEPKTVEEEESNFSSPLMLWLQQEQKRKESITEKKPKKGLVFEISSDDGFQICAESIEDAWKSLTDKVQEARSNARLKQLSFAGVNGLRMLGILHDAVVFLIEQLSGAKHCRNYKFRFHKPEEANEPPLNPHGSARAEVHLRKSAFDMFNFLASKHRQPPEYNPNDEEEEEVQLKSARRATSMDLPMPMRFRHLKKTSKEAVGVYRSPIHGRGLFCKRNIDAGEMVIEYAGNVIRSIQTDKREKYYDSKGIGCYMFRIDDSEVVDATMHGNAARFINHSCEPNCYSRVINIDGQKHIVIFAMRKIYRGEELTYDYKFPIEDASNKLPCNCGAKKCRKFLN
Sequence of Menin/Histone-lysine N-methyltransferase MLL (Homo sapiens, UniProt O00255+Q03164) (O00255 whole entry): as the sequence (O00255 whole entry) above
Sequence of Menin/Histone-lysine N-methyltransferase MLL (Homo sapiens, UniProt O00255+Q03164) (Q03164 1-2718 limits assumed): as the sequence (Q03164 1-2718 partner limits assumed) above
Sequence of Menin/Histone-lysine N-methyltransferase MLL (Homo sapiens, UniProt O00255+Q03164) (Q03164 2719-3969 limits assumed): as the sequence (Q03164 2719-3969 partner limits assumed) above

SMILES	IC50 [1] [µM]	IC50 [2] [µM]	IC50 [3] [µM]	IC50 [4] [µM]	IC50 (MV4-11 [5]) [µM]	fold change (FC) [8]	IC50 [9]	IC50 [10]	IC50 [11]	fold change (FC) [12]	IC50 (MV4-11 [6]) [µM]	IC50 [7]
O=C(O)c1ccc(CN2CCC(CN[C@@H]3C[C@H]3c3ccccc3)CC2)cc1 [GSK2879552]	1.2		> 100	> 100							1.16	Not Active
FC(F)(F)Cc1cc2c(N3CCC(CN[C@@H]4C[C@H]4c4ccccc4)CC3)ncnc2s1	0.0844	17.3	2.23	1.16	11.4							
FC(F)(F)Cc1cc2c(N3CCC(N[C@H]4C[C@@H]4c4ccccc4)CC3)ncnc2s1	0.692	34.5	8.27	36.7	7.31							
FC(F)(F)Cc1cc2c(N[C@H]3CC[C@H](CN[C@H]4C[C@@H]4c4ccccc4)CC3)ncnc2s1	0.184	> 100	8.57	22	5.55							
FC(F)(F)Cc1cc2c(N3CCC(CN[C@H]4C[C@@H]4c4ccccc4)CC3)ncnc2s1	0.061	> 100	9.19	9.63	5.97							
Fc1ccc([C@@H]2C[C@H]2NCC2CCN(c3ncnc4sc(CC(F)(F)F)cc34)CC2)cc1F	0.252	30.9	20.8	49.5	> 100							
Fc1ccc([C@@H]2C[C@H]2NC[C@H]2CC[C@H](Nc3ncnc4sc(CC(F)(F)F)cc34)CC2)cc1F	0.36	> 100	21	20.4	6.96							
Fc1ccc([C@@H]2C[C@H]2NC2CCN(c3ncnc4sc(CC(F)(F)F)cc34)CC2)cc1F	0.241	> 100	56.4	95.6	> 100							

Second part, led by results:

IC50 [1] [µM]	IC50 [2] [µM]	IC50 [3] [µM]	IC50 [4] [µM]	IC50 (MV4-11 [5]) [µM]	fold change (FC) [8]	IC50 [9]	IC50 [10]	IC50 [11]	fold change (FC) [12]	SMILES	IC50 (MV4-11 [6]) [µM]	IC50 [7]
0.124	50.7	4.55	6.05	2.49						FC(F)(F)Cc1cc2c(N[C@H]3CC[C@@H](N[C@@H]4C[C@H]4c4ccccc4)CC3)ncnc2s1		
0.187	> 100	12.9	28.8	3.6						FC(F)(F)Cc1cc2c(N[C@H]3CC[C@H](N[C@H]4C[C@@H]4c4ccccc4)CC3)ncnc2s1		
0.303	36.9	65.9	> 100	0.49	16.4					FC(F)(F)Cc1cc2c(N[C@H]3CC[C@H](N[C@@H]4C[C@H]4c4ccccc4)CC3)ncnc2s1		
0.211	10.2	12.5	40.3	0.29	22.3					FC(F)(F)Cc1cc2c(N3CCC(N[C@@H]4C[C@H]4c4ccccc4)CC3)ncnc2s1		
0.242	24.7	> 100	75.6	3.42						FC(F)(F)Cc1cc2c(N[C@H]3CC[C@@H](N[C@H]4C[C@@H]4c4ccccc4)CC3)ncnc2s1		
				2.6		Not Active	Not Active	Not Active		CC1(C)CN=C(N2CCN(c3ncnc4sc(CC(F)(F)F)cc34)CC2)S1		
0.0661	2.13	40.9	1.21	0.51					7.59	Fc1ccc([C@@H]2C[C@H]2N[C@H]2CC[C@@H](Nc3ncnc4sc(CC(F)(F)F)cc34)CC2)cc1F		
0.109	> 100	4.1	4.81	2.96						FC(F)(F)Cc1cc2c(N[C@H]3CC[C@H](CN[C@@H]4C[C@H]4c4ccccc4)CC3)ncnc2s1		
0.146	> 100	47.5	71.6	2.01						Fc1ccc([C@@H]2C[C@H]2N[C@H]2CC[C@H](Nc3ncnc4sc(CC(F)(F)F)cc34)CC2)cc1F		
